Experimental data reported in PubChem BioAssay (NCI).
Several values for one entry are separate records, joined by “and”; a condition that tells them apart may be missing. Equal entries are not always repeated.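 Method: 48-hour compound exposure of cells in 96-well plates, five concentrations, linear interpolation of endpoints. GI50: concentration for 50% inhibition of growth. TGI denotes the concentration required for complete inhibition of growth.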

Each compound was assayed on OVCAR-4 ovarian (assay: inhibition of tumour cell growth, NCI panel, 48 h).
`Cc1ccc(NC(=O)c2ccc(OP(=O)(O)Nc3ccc(C)cc3)cc2)cc1` was tested, and the TGI was over 100 µM. Compound `Cc1ccnc(NS(=O)(=O)c2ccc(N=[N+]=[N-])cc2)n1` has a TGI of over 100 µM. Compound `Cc1ccccc1C(=N)c1ccccc1Cc1cccc2ccccc12` has a TGI of over 100 µM. `CCOP(=O)(OCC)C(F)(F)c1ccc(CC(NC(=O)OC(C)(C)C)C(=O)O)cc1` (centres undefined) showed a TGI of over 10 µM. Compound `COc1ccc(-c2[nH]c3c4c(nc5c(c24)C(=O)CC(C)(C)C5)CC(C)(C)C3)cc1` has a TGI of over 100 µM. `O=C(C1OC1c1ccc(Br)cc1O)C12CC3CC(CC(C3)C1)C2` (centres undefined) was tested, and the TGI was 81.4 µM. Compound `Cc1ccccc1OC(C)C(=O)NN1C(=O)CSC1c1ccccc1` (centres undefined) has a TGI of over 100 µM. For `Cc1ccc(N(Cc2ccccc2)Cc2ccccc2)cc1`, the TGI was over 100 µM. For `CC(C)=CCC[C@@H](C)c1c(O)c(O)c(C)c2nccnc12`, the TGI was over 100 µM. In the case of `O=c1[nH]c(=S)[nH]c2c1C(c1ccc([N+](=O)[O-])cc1)c1c([nH]c(=S)[nH]c1=O)O2`, the TGI is reported as over 100 µM. Compound `Cn1c(=O)c2c(nc3n2CC(C(=O)O)N3)n(C)c1=O` (centres undefined) has a TGI of over 100 µM. `Cc1ccc(-c2cc(-c3ccco3)c(C#N)c(=S)n2C2OC(CO)C(O)C(O)C2O)cc1` (centres undefined) was tested, and the GI50 was 14.5 µM and > 100 µM and the TGI was 53.6 µM and > 100 µM. Compound `NC(N)=Nc1ccc(CC(N)NCC(=O)O)cc1` (centres undefined) has a TGI of over 25 µM. `COC(=O)C1=C(C(=O)OC)SC(=C2SCSC3=C2SC(C(=O)OC)=C(C(=O)OC)C32SC3=C(CCCC3)S2)S1` showed a TGI of over 100 µM. `COc1nncc2[nH]c(-c3ccccc3)cc12` showed a TGI of over 100 µM. In the case of `CCOC(=O)N1CCN(Cc2cc(=O)n3ccc(C)cc3n2)CC1`, the TGI is reported as over 100 µM. Work on `N#CC(NCc1cccc(CNC(C#N)c2ccccc2)c1)c1ccccc1` (centres undefined) yielded a TGI of over 100 µM.

These compounds were tested on U251 CNS (assay: inhibition of tumour cell growth, NCI panel, 48 h).
In the case of `Cc1ccc(NC(=O)c2ccc(OP(=O)(O)Nc3ccc(C)cc3)cc2)cc1`, the TGI is reported as over 100 µM. In the case of `Cc1ccnc(NS(=O)(=O)c2ccc(N=[N+]=[N-])cc2)n1`, the TGI is reported as over 100 µM. In the case of `Cc1ccccc1C(=N)c1ccccc1Cc1cccc2ccccc12`, the TGI is reported as 33.9 µM. `CCOP(=O)(OCC)C(F)(F)c1ccc(CC(NC(=O)OC(C)(C)C)C(=O)O)cc1` (centres undefined) gave a TGI of over 10 µM. In the case of `COc1ccc(-c2[nH]c3c4c(nc5c(c24)C(=O)CC(C)(C)C5)CC(C)(C)C3)cc1`, the TGI is reported as over 100 µM. In the case of `O=C(C1OC1c1ccc(Br)cc1O)C12CC3CC(CC(C3)C1)C2` (centres undefined), the TGI is reported as 30.8 µM. `Cc1ccccc1OC(C)C(=O)NN1C(=O)CSC1c1ccccc1` (centres undefined) gave a TGI of over 100 µM. Compound `Cc1ccc(N(Cc2ccccc2)Cc2ccccc2)cc1` has a TGI of over 100 µM. Compound `CC(C)=CCC[C@@H](C)c1c(O)c(O)c(C)c2nccnc12` has a TGI of over 100 µM. Compound `O=c1[nH]c(=S)[nH]c2c1C(c1ccc([N+](=O)[O-])cc1)c1c([nH]c(=S)[nH]c1=O)O2` has a TGI of over 100 µM. `Cn1c(=O)c2c(nc3n2CC(C(=O)O)N3)n(C)c1=O` (centres undefined) showed a TGI of over 100 µM. With `Cc1ccc(-c2cc(-c3ccco3)c(C#N)c(=S)n2C2OC(CO)C(O)C(O)C2O)cc1` (centres undefined) the GI50 was 16.6 µM and 36.5 µM and the TGI was 35.6 µM and > 100 µM. `NC(N)=Nc1ccc(CC(N)NCC(=O)O)cc1` (centres undefined) showed a TGI of over 25 µM. `COC(=O)C1=C(C(=O)OC)SC(=C2SCSC3=C2SC(C(=O)OC)=C(C(=O)OC)C32SC3=C(CCCC3)S2)S1` gave a TGI of over 100 µM. `COc1nncc2[nH]c(-c3ccccc3)cc12` was tested, and the TGI was over 100 µM. `CCOC(=O)N1CCN(Cc2cc(=O)n3ccc(C)cc3n2)CC1` was tested, and the TGI was over 100 µM. In the case of `N#CC(NCc1cccc(CNC(C#N)c2ccccc2)c1)c1ccccc1` (centres undefined), the TGI is reported as over 100 µM.

The compounds below were run on LOX IMVI melanoma (assay: inhibition of tumour cell growth, NCI panel, 48 h).
`Cc1ccc(NC(=O)c2ccc(OP(=O)(O)Nc3ccc(C)cc3)cc2)cc1` was tested, and the TGI was over 100 µM. `Cc1ccnc(NS(=O)(=O)c2ccc(N=[N+]=[N-])cc2)n1` was tested, and the TGI was over 100 µM. Work on `Cc1ccccc1C(=N)c1ccccc1Cc1cccc2ccccc12` yielded a TGI of 31.9 µM. Work on `CCOP(=O)(OCC)C(F)(F)c1ccc(CC(NC(=O)OC(C)(C)C)C(=O)O)cc1` (centres undefined) yielded a TGI of over 10 µM. Work on `COc1ccc(-c2[nH]c3c4c(nc5c(c24)C(=O)CC(C)(C)C5)CC(C)(C)C3)cc1` yielded a TGI of over 100 µM. In the case of `O=C(C1OC1c1ccc(Br)cc1O)C12CC3CC(CC(C3)C1)C2` (centres undefined), the TGI is reported as 28.7 µM. For `Cc1ccccc1OC(C)C(=O)NN1C(=O)CSC1c1ccccc1` (centres undefined), the TGI was over 100 µM. Compound `Cc1ccc(N(Cc2ccccc2)Cc2ccccc2)cc1` has a TGI of over 100 µM. `CC(C)=CCC[C@@H](C)c1c(O)c(O)c(C)c2nccnc12` showed a TGI of over 100 µM. With `O=c1[nH]c(=S)[nH]c2c1C(c1ccc([N+](=O)[O-])cc1)c1c([nH]c(=S)[nH]c1=O)O2` the TGI was over 100 µM. `Cn1c(=O)c2c(nc3n2CC(C(=O)O)N3)n(C)c1=O` (centres undefined) showed a TGI of over 100 µM. For `Cc1ccc(-c2cc(-c3ccco3)c(C#N)c(=S)n2C2OC(CO)C(O)C(O)C2O)cc1` (centres undefined), the GI50 was 8.19 µM and 43.1 µM and the TGI was 38.4 µM and > 100 µM. `NC(N)=Nc1ccc(CC(N)NCC(=O)O)cc1` (centres undefined) gave a TGI of over 25 µM. `COC(=O)C1=C(C(=O)OC)SC(=C2SCSC3=C2SC(C(=O)OC)=C(C(=O)OC)C32SC3=C(CCCC3)S2)S1` showed a TGI of over 100 µM. Compound `COc1nncc2[nH]c(-c3ccccc3)cc12` has a TGI of over 100 µM. In the case of `CCOC(=O)N1CCN(Cc2cc(=O)n3ccc(C)cc3n2)CC1`, the TGI is reported as over 100 µM. In the case of `N#CC(NCc1cccc(CNC(C#N)c2ccccc2)c1)c1ccccc1` (centres undefined), the TGI is reported as 28.9 µM.

These compounds were tested on ACHN renal (assay: inhibition of tumour cell growth, NCI panel, 48 h).
`Cc1ccc(NC(=O)c2ccc(OP(=O)(O)Nc3ccc(C)cc3)cc2)cc1` gave a TGI of over 100 µM. Compound `Cc1ccnc(NS(=O)(=O)c2ccc(N=[N+]=[N-])cc2)n1` has a TGI of over 100 µM. In the case of `Cc1ccccc1C(=N)c1ccccc1Cc1cccc2ccccc12`, the TGI is reported as over 100 µM. Work on `CCOP(=O)(OCC)C(F)(F)c1ccc(CC(NC(=O)OC(C)(C)C)C(=O)O)cc1` (centres undefined) yielded a TGI of over 10 µM. In the case of `COc1ccc(-c2[nH]c3c4c(nc5c(c24)C(=O)CC(C)(C)C5)CC(C)(C)C3)cc1`, the TGI is reported as over 100 µM. Compound `O=C(C1OC1c1ccc(Br)cc1O)C12CC3CC(CC(C3)C1)C2` (centres undefined) has a TGI of over 100 µM. With `Cc1ccccc1OC(C)C(=O)NN1C(=O)CSC1c1ccccc1` (centres undefined) the TGI was over 100 µM. `Cc1ccc(N(Cc2ccccc2)Cc2ccccc2)cc1` gave a TGI of over 100 µM. `CC(C)=CCC[C@@H](C)c1c(O)c(O)c(C)c2nccnc12` gave a TGI of 45.2 µM. `O=c1[nH]c(=S)[nH]c2c1C(c1ccc([N+](=O)[O-])cc1)c1c([nH]c(=S)[nH]c1=O)O2` gave a TGI of over 100 µM. Work on `Cn1c(=O)c2c(nc3n2CC(C(=O)O)N3)n(C)c1=O` (centres undefined) yielded a TGI of over 100 µM. `Cc1ccc(-c2cc(-c3ccco3)c(C#N)c(=S)n2C2OC(CO)C(O)C(O)C2O)cc1` (centres undefined) was tested, and the GI50 was 25.6 µM and 53.4 µM and the TGI was over 100 µM. Work on `NC(N)=Nc1ccc(CC(N)NCC(=O)O)cc1` (centres undefined) yielded a TGI of over 25 µM. Work on `COC(=O)C1=C(C(=O)OC)SC(=C2SCSC3=C2SC(C(=O)OC)=C(C(=O)OC)C32SC3=C(CCCC3)S2)S1` yielded a TGI of over 100 µM. In the case of `COc1nncc2[nH]c(-c3ccccc3)cc12`, the TGI is reported as over 100 µM. In the case of `CCOC(=O)N1CCN(Cc2cc(=O)n3ccc(C)cc3n2)CC1`, the TGI is reported as over 100 µM. `N#CC(NCc1cccc(CNC(C#N)c2ccccc2)c1)c1ccccc1` (centres undefined) was tested, and the TGI was over 100 µM.

What follows are compounds tested on M14 melanoma (assay: inhibition of tumour cell growth, NCI panel, 48 h).
`Cc1ccc(NC(=O)c2ccc(OP(=O)(O)Nc3ccc(C)cc3)cc2)cc1` showed a TGI of over 100 µM. In the case of `Cc1ccnc(NS(=O)(=O)c2ccc(N=[N+]=[N-])cc2)n1`, the TGI is reported as over 100 µM. In the case of `Cc1ccccc1C(=N)c1ccccc1Cc1cccc2ccccc12`, the TGI is reported as over 100 µM. `CCOP(=O)(OCC)C(F)(F)c1ccc(CC(NC(=O)OC(C)(C)C)C(=O)O)cc1` (centres undefined) gave a TGI of over 10 µM. `COc1ccc(-c2[nH]c3c4c(nc5c(c24)C(=O)CC(C)(C)C5)CC(C)(C)C3)cc1` gave a TGI of over 100 µM. `O=C(C1OC1c1ccc(Br)cc1O)C12CC3CC(CC(C3)C1)C2` (centres undefined) showed a TGI of 38.6 µM. With `Cc1ccccc1OC(C)C(=O)NN1C(=O)CSC1c1ccccc1` (centres undefined) the TGI was over 100 µM. In the case of `Cc1ccc(N(Cc2ccccc2)Cc2ccccc2)cc1`, the TGI is reported as over 100 µM. In the case of `CC(C)=CCC[C@@H](C)c1c(O)c(O)c(C)c2nccnc12`, the TGI is reported as over 100 µM. For `O=c1[nH]c(=S)[nH]c2c1C(c1ccc([N+](=O)[O-])cc1)c1c([nH]c(=S)[nH]c1=O)O2`, the TGI was over 100 µM. Compound `Cn1c(=O)c2c(nc3n2CC(C(=O)O)N3)n(C)c1=O` (centres undefined) has a TGI of over 100 µM. In the case of `Cc1ccc(-c2cc(-c3ccco3)c(C#N)c(=S)n2C2OC(CO)C(O)C(O)C2O)cc1` (centres undefined), the TGI is reported as 68.2 µM and 75.7 µM. `NC(N)=Nc1ccc(CC(N)NCC(=O)O)cc1` (centres undefined) showed a TGI of over 25 µM. With `COC(=O)C1=C(C(=O)OC)SC(=C2SCSC3=C2SC(C(=O)OC)=C(C(=O)OC)C32SC3=C(CCCC3)S2)S1` the TGI was over 100 µM. For `COc1nncc2[nH]c(-c3ccccc3)cc12`, the TGI was over 100 µM. `CCOC(=O)N1CCN(Cc2cc(=O)n3ccc(C)cc3n2)CC1` gave a TGI of over 100 µM. Compound `N#CC(NCc1cccc(CNC(C#N)c2ccccc2)c1)c1ccccc1` (centres undefined) has a TGI of 62.2 µM.
